The text below walks through data of patent US10253039B2, “Inhibitors of bacterial DNA gyrase with efficacy against gram-negative bacteria” (priority 2014, dated 2019).

≈ marks a conversion by molar mass, not a printed value. Like-named read-outs stand apart in the source and are kept apart here.

Common to all, as to type: cell-based
In assay [1] the test system is E. coli BW25113. Kind of assay: MIC, microdilution in 96-well plates. The settings on record: Escherichia coli, read-out: MIC. The procedure, abridged: (§1)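 Broth microdilution per CLSI guidance: each strain was diluted 1:10000 from a growing subculture into Luria-Bertani medium, and compound was serially diluted 2-fold in triplicate alongside a DMSO column. Plates were shaken at 37° C. for 16-18 hours; MIC is the lowest concentration showing no visible turbidity.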

In assay [2] the test system is Edwardsiella tarda. Put plainly: MIC, microdilution in 96-well plates. In a few lines: as §1
Assay [3] concerns E. coli JW5503 (deltolC). Put plainly: MIC, 20-strain panel. The note with it: Escherichia coli. The procedure, abridged:
as §1

The test system of assay [4] is E. coli MG1655. Kind of assay: MIC, 20-strain panel. The settings on record: Escherichia coli, read-out: MIC. The procedure, abridged: as §1
For assay [5], the system named is Klebsiella pneumoniae subsp. pneumoniae. Kind of assay: MIC, 20-strain panel. The procedure, abridged: as §1
Assay [6] has as its system Salmonella enterica subsp. enterica typhimurium. Put plainly: MIC, 20-strain panel. The procedure, abridged:
as §1

Assay [7] deals with Shigella flexneri. Kind of assay: MIC, 20-strain panel. In a few lines: as §1
Assay [8] concerns Staphylococcus aureus subsp. aureus. Put plainly: MIC, 20-strain panel. The settings on record: read-out: MIC. The procedure, abridged: as §1
Assay [9] deals with Staphylococcus epidermidis. Kind of assay: MIC, 20-strain panel. In a few lines:
as §1

Assay [10] has as its system Staphylococcus saprophyticus subsp. saprophyticus. Kind of assay: MIC, 20-strain panel. The procedure, abridged:
as §1

Assay [11] relates to Streptococcus agalactiae. Kind of assay: MIC, 20-strain panel. In a few lines: as §1
The test system of assay [12] is Streptococcus pyogenes. Put plainly: MIC, 20-strain panel. The procedure, abridged: as §1
Where [13] appears, read: E: Klebsiella pneumoniae subsp. pneumoniae.
The mark [14] stands for this setting: F: Salmonella enterica subsp. enterica Typhimurium.
The mark [15] stands for this setting: H: Staphylococcus aureus subsp. aureus.

As for `O=C1CCCN1c1ccc(CN2CC[C@@H](NS(=O)(=O)c3cccc(OC(F)(F)F)c3)C2)cc1` [Compound 100], the MIC was above 8 µg/mL in [1] (BW25113, B: E. coli BW25113); above 8 µg/mL in [2] (D: Edwardsiella tarda); 2 µg/mL (≈ 4.14 µM) in [3] (C: E. coli JW5503 (deltolC)); above 8 µg/mL in assay [4] (MG1655, A: E. coli MG1655); above 8 µg/mL in assay [5] (setting [13]); above 8 µg/mL in [6] (setting [14]). Also, the MIC in [7] (G: Shigella flexneri), in assay [8] (setting [15]), in assay [9], in assay [10], in assay [11] and in assay [12] was above 8 µg/mL in each case.
Take `COc1ccc(-c2ccc(CN3CC[C@@H](NS(=O)(=O)c4cccc(C#N)c4)C3)cc2)cc1` [Compound 80]: the MIC in [1] (BW25113, B: E. coli BW25113) was above 8 µg/mL; in assay [2] (D: Edwardsiella tarda) it was above 8 µg/mL; in assay [3] (C: E. coli JW5503 (deltolC)), above 8 µg/mL; in assay [4] (MG1655, A: E. coli MG1655), above 8 µg/mL; in assay [5] (setting [13]) it was above 8 µg/mL; in assay [6] (setting [14]), above 8 µg/mL. Further, the MIC in [7] (G: Shigella flexneri), in assay [8] (setting [15]), in [9], in assay [10], in assay [11] and in assay [12] was above 8 µg/mL throughout.
Consider `Cc1ccncc1S(=O)(=O)N[C@@H]1CCN(Cc2ccc(OC(C)C)cc2)C1` [Compound 121], for which the minimum inhibitory concentration (MIC) is above 8 µg/mL in assay [1] (BW25113, B: E. coli BW25113); above 8 µg/mL in [2] (D: Edwardsiella tarda); around 8 µg/mL (≈ 20.5 µM) in [3] (C: E. coli JW5503 (deltolC)); above 8 µg/mL in assay [4] (MG1655, A: E. coli MG1655); above 8 µg/mL in assay [5] (setting [13]); above 8 µg/mL in assay [6] (setting [14]). Further, the MIC in assay [7] (G: Shigella flexneri), in [8] (setting [15]), in assay [9], in [10], in assay [11] and in [12] was above 8 µg/mL each time.
As to `N#Cc1cccc(S(=O)(=O)N[C@@H]2CCN(Cc3nc(-c4ccccc4)cs3)C2)c1` [Compound 34], the minimal inhibitory concentration (MIC) in assay [1] (BW25113, B: E. coli BW25113) is above 8 µg/mL; in assay [2] (D: Edwardsiella tarda) it was above 8 µg/mL; in assay [3] (C: E. coli JW5503 (deltolC)), above 8 µg/mL; in assay [4] (MG1655, A: E. coli MG1655) it was above 8 µg/mL; in [5] (setting [13]), above 8 µg/mL; in [6] (setting [14]), above 8 µg/mL. Further, the MIC in [7] (G: Shigella flexneri), in [8] (setting [15]), in assay [9], in assay [10], in assay [11] and in assay [12] was above 8 µg/mL each time.
As for `N#Cc1cc(S(=O)(=O)N[C@@H]2CCN(Cc3ccc(-c4ccccc4)cc3)C2)ccc1Cl` [Compound 120], the MIC in assay [1] (BW25113, B: E. coli BW25113) was above 8 µg/mL; in assay [2] (D: Edwardsiella tarda), above 8 µg/mL; in assay [3] (C: E. coli JW5503 (deltolC)), around 8 µg/mL (≈ 17.7 µM); in assay [4] (MG1655, A: E. coli MG1655), above 8 µg/mL; in assay [5] (setting [13]), above 8 µg/mL; in assay [6] (setting [14]), above 8 µg/mL. In addition, the minimal inhibitory concentration (MIC) in [7] (G: Shigella flexneri), in assay [8] (setting [15]), in assay [9], in assay [10], in assay [11] and in assay [12] was above 8 µg/mL in each case.
In the case of `O=S(=O)(N[C@@H]1CCN(Cc2ccc(OCC(F)F)cc2)C1)c1cccc(C(F)(F)F)c1` [Compound 64], the MIC was above 8 µg/mL in [1] (BW25113, B: E. coli BW25113); above 8 µg/mL in [2] (D: Edwardsiella tarda); 0.25 µg/mL (≈ 0.538 µM) in assay [3] (C: E. coli JW5503 (deltolC)); above 8 µg/mL in assay [4] (MG1655, A: E. coli MG1655); above 8 µg/mL in assay [5] (setting [13]); 4 µg/mL (≈ 8.61 µM) in assay [6] (setting [14]). For the same molecule, the MIC in assay [7] (G: Shigella flexneri), in [8] (setting [15]), in assay [9], in [10], in assay [11] and in assay [12] was above 8 µg/mL throughout.
As to `N#Cc1ccc(S(=O)(=O)N[C@@H]2CCN(Cc3ccc(OC4CC4)cc3)C2)cn1` [Compound 159], the minimal inhibitory concentration (MIC) in [1] (BW25113, E. coli BW25113) was above 8 µg/mL; in [2], above 8 µg/mL; in assay [3] (E. coli JW5503 (deltolC)) it was above 8 µg/mL; in assay [4] (MG1655, E. coli MG1655), above 8 µg/mL; in assay [5] (Klebsiella pneumoniae subsp. pneumoniae) it was above 8 µg/mL; in assay [6] (Salmonella enterica subsp. enterica Typhimurium), above 8 µg/mL. For the same molecule, the minimal inhibitory concentration (MIC) in assay [7], in assay [8] (Staphylococcus aureus subsp. aureus), in assay [9], in assay [10], in assay [11] and in [12] was above 8 µg/mL in each case.

As a reminder, the MIC is the least concentration at which growth counts as inhibited.
